Reference: ChEMBL document CHEMBL5346922, “Discovery of phenylcarbamoyl xanthone derivatives as potent neuroprotective agents for treating ischemic stroke” (Eur J Med Chem, 2023)
Activity calls are given as the source filed them. No cut-off for these calls is given here.

How the values were obtained:
[1] = tested on: PC-12; experiment: Cytotoxicity against rat PC12 cells assessed as reduction in cell viability incubated for 24 hrs by MTT assay; format: functional, cell-based; settings: for IC50: PC-12, 24 h
[2] = tested on: PC-12; experiment: Cytotoxicity against rat PC12 cells assessed as reduction in cell viability at 80 uM incubated for 24 hrs by MTT assay; format: functional
[3] = tested on: PC-12; experiment: Neuroprotective activity against glutamate induced excitotoxicity in rat PC12 cells pretreated with glutamate for 24 hrs followed by compound addition and measured after 24 hrs; format: functional, cell-based
[4] = tested on: Rattus norvegicus; experiment: Neuroprotective activity against middle cerebral artery occlusion induced ischemia stroke Sprague-Dawley rat model assessed as reduction in TNF-alpha level in serum at 20 to 60 mg/kg, ip measured after 24 hrs by ELISA analysis; format: functional, organism-based; settings: dose 20-60 mg/kg
[5] = tested on: PC-12; experiment: Neuroprotective activity against H2O2-induced oxidative damage in rat PC12 cells assessed as increase in cell survival at 20 uM pretreated with H2O2 for 24 hrs followed by compound addition and measured after 24 hrs; format: functional; settings: read-out: Survival
[6] = tested on: PC-12; experiment: Neuroprotective activity against H2O2-induced oxidative damage in rat PC12 cells at 20 uM pretreated with H2O2 for 24 hrs followed by compound addition and measured after 24 hrs; format: functional
[7] = tested on: Rattus norvegicus; experiment: Neuroprotective activity against middle cerebral artery occlusion induced ischemia stroke Sprague-Dawley rat model assessed as Zea-longa score at 60 mg/kg, po measured after 24 hrs (reference value: 2.33 +/- 0.47); format: functional
[8] = tested on: Rattus norvegicus; experiment: Neuroprotective activity against middle cerebral artery occlusion induced ischemia stroke Sprague-Dawley rat model assessed as increase in serum SOD level at 20 to 60 mg/kg, ip measured after 24 hrs; format: functional, organism-based; settings: dose 20-60 mg/kg
[9] = tested on: Rattus norvegicus; experiment: Neuroprotective activity against middle cerebral artery occlusion induced ischemia stroke Sprague-Dawley rat model assessed as decrease in cerebral infarction area at 60 mg/kg, ip measured after 24 hrs by TTC staining based microscopic assay (reference value: 15.91 +/- 9.06 %); format: functional; set-up: scale not given: the % may be the effect or the level left
[10] = tested on: Rattus norvegicus; experiment: Neuroprotective activity against middle cerebral artery occlusion induced ischemia stroke Sprague-Dawley rat model assessed as reduction in IL-1beta level in serum at 20 to 60 mg/kg, ip measured after 24 hrs by ELISA analysis; format: functional, organism-based; settings: dose 20-60 mg/kg
[11] = tested on: PC-12; experiment: Neuroprotective activity against H2O2-induced oxidative damage in rat PC12 cells pretreated with H2O2 for 24 hrs followed by compound addition and measured after 24 hrs; format: functional, cell-based
[12] = tested on: Rattus norvegicus; experiment: Neuroprotective activity against middle cerebral artery occlusion induced ischemia stroke Sprague-Dawley rat model assessed as decrease in brain water content at 60 mg/kg, ip measured after 24 hrs (reference value: 83.17 +/- 2.40%); format: functional; set-up: scale not given: the % may be the effect or the level left
[13] = tested on: PC-12; experiment: Neuroprotective activity against glutamate induced excitotoxicity in rat PC12 cells assessed as cell survival at 20 uM pretreated with glutamate for 24 hrs followed by compound addition and measured after 24 hrs; format: functional; settings: read-out: Survival
[14] = Acute toxicity in Sprague-Dawley rat assessed as animal death at 4000 mg/kg, po measured for 24 hrs; format: organism-based; settings: in vivo
[15] = tested on: Rattus norvegicus; experiment: Neuroprotective activity against middle cerebral artery occlusion induced ischemia stroke Sprague-Dawley rat model assessed as […] in serum MDA level at 20 to 60 mg/kg, ip measured after 24 hrs; format: functional, organism-based; settings: dose 20-60 mg/kg
[16] = tested on: PC-12; experiment: Neuroprotective activity in rat PC12 cells assessed as protection against glutamate induced excitotoxicity at 20 uM pretreated with glutamate for 24 hrs followed by compound addition and measured after 24 hrs; format: functional
[17] = tested on: Rattus norvegicus; experiment: Neuroprotective activity against middle cerebral artery occlusion induced ischemia stroke Sprague-Dawley rat model assessed as Zea-longa score at 20 mg/kg, po measured after 24 hrs (reference value: 2.17+/- 0.37); format: functional
[18] = tested on: PC-12; experiment: Neuroprotective activity against glutamate induced excitotoxicity in rat PC12 cells assessed as cell survival at 25 uM pretreated with glutamate for 24 hrs followed by compound addition and measured after 24 hrs; format: functional; settings: read-out: Survival
[19] = tested on: PC-12; experiment: Neuroprotective activity in rat PC12 cells assessed as protection against glutamate induced excitotoxicity at 160 uM pretreated with glutamate for 24 hrs followed by compound addition and measured after 24 hrs; format: functional
[20] = tested on: PC-12; experiment: Neuroprotective activity against glutamate induced excitotoxicity in rat PC12 cells assessed as cell survival at 160 uM pretreated with glutamate for 24 hrs followed by compound addition and measured after 24 hrs; format: functional; settings: read-out: Survival

Row | Structure (SMILES) | viability at 20 µM [5] [%] | Activity [6] [%] | viability at 20 µM [13] [%] | Activity [16] [%] | also measured
1 | COc1c(OC(=O)N(C)c2ccccc2)cc2oc3c(CN(C)C)c4c(c(O)c3c(=O)c2c1CC=C(C)C)C=CC(C)(C)O4 |  |  |  |  | IC50 [1]: 5 µM; Activity [2]: 90%
2 | COc1c(OC(=O)N(C)c2ccccc2)cc2oc3cc4c(c(O)c3c(=O)c2c1CC=C(C)C)C=CC(C)(C)O4 | 78.9 | 52.62 | 68.6 | 54.79 | EC50 [3]: 16.1 µM; Activity [4]: Active; Activity [7]: 1.67; Activity [8]: Active; Activity [9]: 1.78%; IC50 [1]: 3.3 µM; Activity [10]: Active; EC50 [11]: 19.3 µM; Activity [12]: 77.41%; Activity [14]: Non-Toxic; Activity [15]: Active; Activity [2]: inactive
3 | COc1c(OC(=O)N(C)c2ccccc2)cc2oc3c(CN4CCN(C)CC4)c4c(c(O)c3c(=O)c2c1CC=C(C)C)C=CC(C)(C)O4 |  |  |  |  | Activity [1]: Active
4 | COc1c(OC(=O)N(CC2CC2)c2ccccc2)cc2oc3cc4c(c(O)c3c(=O)c2c1CC=C(C)C)C=CC(C)(C)O4 | 74.2 | 42.11 | 68 | 53.91 | EC50 [3]: 20.9 µM; EC50 [11]: 29.2 µM
5 | COc1c(OC(=O)N(C)c2ccc(F)cc2)cc2oc3cc4c(c(O)c3c(=O)c2c1CC=C(C)C)C=CC(C)(C)O4 | 74.7 | 43.32 | 67.2 | 52.82 | EC50 [3]: 21.3 µM; EC50 [11]: 28.8 µM
6 | COc1c(OC(=O)N(CC2CC2)c2cccc(F)c2)cc2oc3cc4c(c(O)c3c(=O)c2c1CC=C(C)C)C=CC(C)(C)O4 | 74.4 | 42.67 | 69.2 | 55.65 | EC50 [3]: 17.3 µM; EC50 [11]: 24.8 µM
7 | COc1c(OC(=O)N(C)c2cccc(Cl)c2)cc2oc3cc4c(c(O)c3c(=O)c2c1CC=C(C)C)C=CC(C)(C)O4 | 58.2 | 6.23 | 31.6 | 1.57 | 
8 | COc1c(OC(=O)N(C)c2cccc(F)c2)cc2oc3cc4c(c(O)c3c(=O)c2c1CC=C(C)C)C=CC(C)(C)O4 | 60.9 | 12.46 | 67.8 | 53.62 | EC50 [3]: 19.7 µM
9 | COc1c(OC(=O)N(CC2CC2)c2cccc(Br)c2)cc2oc3cc4c(c(O)c3c(=O)c2c1CC=C(C)C)C=CC(C)(C)O4 | 63.2 | 17.48 | 46.5 | 23.09 | 
10 | COc1c(OC(=O)N(CC2CC2)c2ccc(C)cc2)cc2oc3cc4c(c(O)c3c(=O)c2c1CC=C(C)C)C=CC(C)(C)O4 | 69 | 30.57 | 64 | 48.26 | 
11 | COc1c(OC(=O)N(C)c2ccc(C(C)(C)C)cc2)cc2oc3cc4c(c(O)c3c(=O)c2c1CC=C(C)C)C=CC(C)(C)O4 | 63.6 | 18.35 | 38.9 | 12.14 | 
12 | COc1c(OC(=O)N(C)c2ccccc2)cc2oc3cc4c(c(OCc5ccc(F)cc5)c3c(=O)c2c1CC=C(C)C)C=CC(C)(C)O4 | 65.5 | 22.59 | 31 | 0.01 | 
13 | CCCCC1OC(=O)c2ccccc21 (stereo not drawn) [RAC-3-N-BUTYLPHTHALIDE] |  |  |  |  | Activity [9]: 1.64%; Activity [12]: 82.2%; Activity [17]: 1.33
14 | COc1c(OC(=O)N(C)c2cccc(Cl)c2)cc2oc3cc4c(c(OC)c3c(=O)c2c1CC=C(C)C)C=CC(C)(C)O4 | 68 | 28.17 | 36 | 7.91 | 
15 | COc1ccccc1N(C)C(=O)Oc1cc2oc3cc4c(c(O)c3c(=O)c2c(CC=C(C)C)c1OC)C=CC(C)(C)O4 | 61.6 | 13.94 | 48.4 | 25.79 | 
16 | N[C@@H](CCC(=O)O)C(=O)O [GLUTAMIC ACID] |  |  |  |  | viability at 25 µM [18]: 30.5%
17 | COc1c(OC(=O)N(C)c2ccc(C)cc2)cc2oc3cc4c(c(OC)c3c(=O)c2c1CC=C(C)C)C=CC(C)(C)O4 | 70.2 | 33.3 | 49.1 | 26.81 | 
18 | CCc1ccccc1N(C)C(=O)Oc1cc2oc3cc4c(c(O)c3c(=O)c2c(CC=C(C)C)c1OC)C=CC(C)(C)O4 | 63.1 | 17.35 | 55.1 | 35.36 | 
19 | CC12CC3CC(C)(C1)CC(N)(C3)C2 [MEMANTINE] |  |  |  |  | Activity [19]: 46.85%; viability at 160 µM [20]: 63%
20 | CCOc1cccc(N(C)C(=O)Oc2cc3oc4cc5c(c(O)c4c(=O)c3c(CC=C(C)C)c2OC)C=CC(C)(C)O5)c1 | 59.1 | 8.38 | 43.7 | 18.96 | 
21 | COc1c(OC(=O)N(CC2CC2)c2cccc(Cl)c2)cc2oc3cc4c(c(O)c3c(=O)c2c1CC=C(C)C)C=CC(C)(C)O4 | 75.9 | 45.94 | 62.9 | 46.68 | EC50 [11]: 26.2 µM
